Test results as given in US20150374673A1, “Combination Therapy for the Treatment of Nosocomial Pneumonia” (priority 2013, published 2015).
Values joined by “and” are separate entries in the source; they are usually repeats but may differ in a detail not shown here. Equal values may be shown once. Read-outs that look alike come from different tables or passages of the source.

Experiments:
E. cloacae = experiment: Initial MIC, microbroth dilution (CLSI), avibactam 4 mg/L; format: cell-based; conditions: Enterobacter cloacae
From the text: (§1) All MIC determinations including those performed in the checkerboard assay were done in cation-adjusted Mueller-Hinton broth (purchased from Becton Dickinson, Oxford UK). […]

E. coli = experiment: as above; format: cell-based; conditions: Escherichia coli, read-out: MIC
From the text: as §1

E. faecalis = experiment: as above; format: cell-based
From the text: as §1

S. aureus = experiment: as above; format: cell-based; conditions: Staphylococcus aureus, read-out: MIC
From the text: as §1

K. pneumoniae = experiment: as above; format: cell-based; conditions: Klebsiella pneumoniae
Procedure: (§2) All MIC determinations including those performed in the checkerboard assay were done in cation-adjusted Mueller-Hinton broth (purchased from Becton Dickinson, Oxford UK).
(§3) Initial MIC data were determined by microbroth dilution methods as recommended by CLSI (2012b). Checkerboards were made in accordance with the method given by Pillai et. al., ? Antimicrobial Combinations in Antibiotics, LABORATORY MEDICINE (Lorian Ed., 3rd Ed. (2003)) p. 365-440 as per standard microbroth dilution tests but with agents in combination. […] A final avibactam concentration of 4 mg/L was used throughout the study. Antibacterial agents were combined into microtitre plates using the Evolution III liquid handling system.

P. aeruginosa [1] = experiment: as above; format: cell-based; conditions: Pseudomonas aeruginosa
Procedure: as §2, §3

P. aeruginosa [2] = experiment: MIC of the P. aeruginosa isolates used in the in vivo efficacy studies; format: cell-based; conditions: Pseudomonas aeruginosa
P. aeruginosa [3] = experiment: Neutropenic CD-1 mice with experimental pneumonia (lung infection), exposure response of ceftazidime q2h and avibactam q2h or q8h; format: in vivo, Pseudomonas aeruginosa; conditions: for % fT > CT1 q2 / % fT > CT1 q8 / TDD AVI q2h / TDD AVI q8h / log TDD AVI q2h / log TDD AVI q8h: Dose CAZ 16 mg/kg q2h; for % fT > CT1 q2 / % fT > CT1 q8: CT 1 mg/L; for TDD AVI q2h / TDD AVI q8h / log TDD AVI q2h / log TDD AVI q8h: static effect; for factor by which daily dose for static effect was lower q2h than q8h: with ceftazidime q2h
Procedure: CD-1 neutropenic mice were infected with approx. 10^6 cfu in the lung by instillation through the nares under light anaesthesia. […] For avibactam the % time of the dosing interval above a virtual in vivo threshold concentration, CT, % fT>CT, were calculated (CT of 0.25, 1 and 4 mg/L).
Outbred female CD-1 mice (Charles River, Netherlands), 4 to 5 weeks old, weighing 20 to 25 g were used in the experiments. Granulocytopenia was induced by two doses of cyclophosphamide s.c. four days (150 mg/kg) and one day (100 mg/kg) before the infection experiment.
Neutropenic mice were infected with one P. aeruginosa strain per animal. 0.05 mL of bacterial suspension consisting of approximately 10^5-10^6 bacteria was inoculated intra-nasally with a syringe under light anaesthesia with isoflurane. […] All dosing regimens were performed in at least two animals. At t=0 h, 2 mice were humanely sacrificed to determine the initial inoculum just before starting treatment. All other animals were sacrificed at t=24 h unless the welfare of the animals indicated earlier termination was necessary, following animal welfare regulations. Lungs were taken and moved to a pre-cooled 10-mL plastic tube (Transport Tube, Omnilabo, NL) containing 2 mL phosphate buffered saline (PBS; NaCl 8.00 g/L, Na2HPO4*2 H2O 1.44 g/L, KH2PO4 0.26 g/L, pH 7.2-7.4). Subsequently lungs were grounded using an Ultra-Turrax (IKA Labortechnik, Germany). A tenfold dilution series was prepared and 3×10 μL plated (Chromagar, Biomerieux, NL) per dilution. The following day, colonies were counted and the number of cfu per lung calculated.
This regimen was chosen because of the sensitivity to changes in effects of avibactam. The amount of avibactam administered varied in frequency and dose. […] The drug ? effect was determined as the difference between the log10 cfu values at t=24 h and t=0 h (mean value of 2 mice) expressed as dcfu. Free drug concentrations were used in all calculations. […] For avibactam % fT>CT, the % time of the dosing interval above threshold concentration CT were calculated for CT of 0.25, 1 and 4 mg/L. The CT values were chosen based on the activity of avibactam in vitro, 4 mg/L being used in susceptibility testing, but lower concentrations also being active as determined in in vitro checkerboard studies.

[4] = q2h and q8h, strains 11 and 18, lung

Structure (SMILES): CC(C)(O/N=C(\C(=O)N[C@@H]1C(=O)N2C(C(=O)[O-])=C(C[n+]3ccccc3)CS[C@H]12)c1csc(N)n1)C(=O)O [ceftazidime, (6R,7R)-7-[[(2Z)-2-(2-amino-1,3-thiazol-4-yl)-2-(1-hydroxy-2-methyl-1-oxopropan-2-yl)oxyiminoacetyl]amino]-8-oxo-3-(pyridin-1-ium-1-ylmethyl)-5-thia-1-azabicyclo[4.2.0]oct-2-ene-2-carboxylate pentahydrate]
- MIC (E. cloacae; isolate 1 E. cloacae Basal MICs, read-out: MIC): 0.12 µg/mL
- MIC (E. cloacae; isolate 2 E. cloacae Derepressed AmpC): 256 µg/mL
- MIC (E. cloacae; isolate 3 E. cloacae Derepressed AmpC): 128 µg/mL
- MIC (E. coli; isolate 5 E. coli CTX-M-15): 64 µg/mL
- MIC (E. coli; isolate 6 E. coli TEM-4): 8 µg/mL
- MIC (E. coli; isolate 7 E. coli SHV-12): 16 µg/mL
- MIC (E. coli; isolate 8 E. coli SHV-2): 1 µg/mL
- MIC (E. faecalis; Enterococcus faecalis): 256 µg/mL
- MIC (E. faecalis; Enterococcus faecalis, isolate 25 E. faecalis Basal MICs, read-out: MIC): > 512 µg/mL
- MIC (E. faecalis; isolate 27 E. faecalis Basal MICs): 256 µg/mL
- MIC (S. aureus; isolate 22 S. aureus Basal MICs): 8 µg/mL
- MIC (S. aureus; isolate 23 S. aureus Basal MICs, Penicillinase+): 16 µg/mL
- MIC (S. aureus; isolate 24 S. aureus Basal MICs, Penicillinase+): 8 µg/mL
- MIC (K. pneumoniae; isolate 9 K. pneumoniae Basal MICs, read-out: MIC): 0.12 µg/mL
- MIC (K. pneumoniae; isolate 10 K. pneumoniae TEM-4, read-out: MIC): 32 µg/mL
- MIC (K. pneumoniae; isolate 11 K. pneumoniae CTX-M-15, read-out: MIC): 32 µg/mL
- MIC (K. pneumoniae; isolate 12 K. pneumoniae SHV-12, read-out: MIC): 64 µg/mL
- MIC (K. pneumoniae; isolate 13 K. pneumoniae KPC-3): 128 µg/mL
- MIC (K. pneumoniae; isolate 14 K. pneumoniae KPC-3, read-out: MIC): 16 µg/mL
- MIC (K. pneumoniae; isolate 15 K. pneumoniae KPC-2, read-out: MIC): 64 µg/mL
- MIC (P. aeruginosa [1]; isolate 16 P. aeruginosa Basal MICs, read-out: MIC): 1 µg/mL
- MIC (P. aeruginosa [1]; isolate 17 P. aeruginosa Derepressed AmpC, read-out: MIC): 8 µg/mL
- MIC (P. aeruginosa [1]; isolate 18 P. aeruginosa Derepressed AmpC, read-out: MIC): 64 µg/mL
- MIC (P. aeruginosa [1]; isolate 19 P. aeruginosa PER, read-out: MIC): 128 µg/mL
- MIC (P. aeruginosa [1]; isolate 20 P. aeruginosa KPC-2): 128 µg/mL
- MIC (P. aeruginosa [1]; isolate 21 P. aeruginosa KPC-2, read-out: MIC): 64 µg/mL
- MIC (P. aeruginosa [2]; P. aeruginosa PSA 1-25): 128 µg/mL
- MIC (P. aeruginosa [2]; P. aeruginosa PSA 1-29): 32 µg/mL
- MIC (P. aeruginosa [2]; P. aeruginosa PSA 2-69): 64 µg/mL
- MIC (P. aeruginosa [2]; P. aeruginosa PSA 3-9): > 128 µg/mL
- MIC (P. aeruginosa [2]; P. aeruginosa PSA 4-32): 32 µg/mL
- MIC (P. aeruginosa [2]; P. aeruginosa PSA 4-36): 64 µg/mL
- MIC (P. aeruginosa [2]; P. aeruginosa PSA 4-39): 32 µg/mL
- MIC (P. aeruginosa [2]; P. aeruginosa PSA 4-84): 64 µg/mL
- MIC (P. aeruginosa [2]; P. aeruginosa PSA 7-6): 128 µg/mL
- MIC (P. aeruginosa [2]; P. aeruginosa PSA 8-16): 64 µg/mL
- MIC (P. aeruginosa [2]; P. aeruginosa PSA 11-54): 32 µg/mL
- MIC (P. aeruginosa [2]; P. aeruginosa PSA 14-28): 128 µg/mL
- MIC (P. aeruginosa [2]; P. aeruginosa PSA 22): 64 µg/mL
- MIC (P. aeruginosa [2]; P. aeruginosa PSA 24-2): 32 µg/mL
- MIC (P. aeruginosa [2]; P. aeruginosa PSA 28-19): 128 µg/mL
- MIC (P. aeruginosa [2]; P. aeruginosa PSA 37-8): 64 µg/mL
- MIC (P. aeruginosa [2]; P. aeruginosa PSA 856): 8 µg/mL
- MIC (P. aeruginosa [2]; P. aeruginosa PSA 968): 32 µg/mL
- MIC (P. aeruginosa [2]; P. aeruginosa PSA 971): 16 µg/mL
- MIC (P. aeruginosa [2]; P. aeruginosa PSA 1382): 128 µg/mL
- MIC (P. aeruginosa [2]; P. aeruginosa PSA 1383): 64 µg/mL
- MIC (P. aeruginosa [2]; P. aeruginosa PSA 1384): 64 µg/mL
- MIC (P. aeruginosa [2]; P. aeruginosa PSA 1386): 128 µg/mL
- MIC (P. aeruginosa [2]; P. aeruginosa PSA 1387): 32 µg/mL
- MIC (P. aeruginosa [2]; P. aeruginosa PSA 1388): 128 µg/mL
- MIC (P. aeruginosa [2]; P. aeruginosa PSA 1389): 64 µg/mL
- MIC (P. aeruginosa [2]; P. aeruginosa PSA 1391): 128 µg/mL
- MIC (P. aeruginosa [2]; P. aeruginosa PSA 1394): 64 µg/mL

Structure (SMILES): NC(=O)[C@@H]1CC[C@@H]2CN1C(=O)N2OS(=O)(=O)[O-].[Na+] [avibactam, [(2S,5R)-2-carbamoyl-7-oxo-1,6-diazabicyclo[3.2.1]octan-6-yl]hydrogen sulfate]
- efficacy by dosing frequency (P. aeruginosa [3]; avibactam q2h or q8h with ceftazidime q2h, lung): q2h regimen was more efficacious than the q8h regimen
- effect on static % fT>MIC of ceftazidime (P. aeruginosa [3]; lung infection, all strains): reduced
- % fT > CT1 q2, mean (P. aeruginosa [3]; mean of strains 18 and 11 (sd 2.7), lung infection, avibactam q2h): 21.6%
- % fT > CT1 q8, mean (P. aeruginosa [3]; mean of strains 18 and 11 (sd 3.4), lung infection, avibactam q8h): 18.5%
- overall mean % fT>CT 1 mg/L for static effect (P. aeruginosa [3]; [4]): 20.1%
- range of % fT>CT 1 mg/L for static effect (P. aeruginosa [3]; [4]): 16.1-23.5
- % fT > CT1 q2 (P. aeruginosa [3]; strain 11, lung infection, avibactam q2h): 19.7%
- % fT > CT1 q8 (P. aeruginosa [3]; strain 11, lung infection, avibactam q8h): 20.9%
- TDD AVI q2h (P. aeruginosa [3]; strain 11, lung infection): 45.65 mg/kg
- TDD AVI q8h (P. aeruginosa [3]; strain 11, lung infection): 463.29 mg/kg
- log TDD AVI q2h (P. aeruginosa [3]; strain 11, lung infection): 1.66 mg/kg
- log TDD AVI q8h (P. aeruginosa [3]; strain 11, lung infection): 2.67 mg/kg
- factor by which daily dose for static effect was lower q2h than q8h (P. aeruginosa [3]; strain 11, lung): 2.7
- % fT > CT1 q2 (P. aeruginosa [3]; strain 18, lung infection, avibactam q2h): 23.5%
- % fT > CT1 q8 (P. aeruginosa [3]; strain 18, lung infection, avibactam q8h): 16.1%
- TDD AVI q2h (P. aeruginosa [3]; strain 18, lung infection): 56.65 mg/kg
- TDD AVI q8h (P. aeruginosa [3]; strain 18, lung infection): 150.57 mg/kg
- log TDD AVI q2h (P. aeruginosa [3]; strain 18, lung infection): 1.75 mg/kg
- log TDD AVI q8h (P. aeruginosa [3]; strain 18, lung infection): 2.18 mg/kg
- factor by which daily dose for static effect was lower q2h than q8h (P. aeruginosa [3]; strain 18, lung): 10.1
- % fT>CT 1 mg/L estimates for stasis over 24 h (P. aeruginosa [3]; the other two of strains 7, 5, 19 and 1 (not 1 and 19), ceftazidime q2h, lung): 21.4% and 19.4%
- % fT>CT 1 mg/L estimates (P. aeruginosa [3]; two control strains, lung): 22.4% and 21.6%
